{"source": "patent US20200024315A1", "about": "“ANTIMICROBIAL PEPTIDES AND METHODS OF TREATING GRAM-NEGATIVE PATHOGENS” (THE REGENTS OF THE UNIVERSITY OF COLORADO, a body corporate, priority 2017, published 2020)", "molecules": {"B1": {"name": "D52 (peptide)", "chain": "Ac-[dA][dL][dK][dK][dL][dL][dS][dT][dL][dS][dS][dA][dK][dS][dS][dK][dL][dS][dT][dL][dL][dK][dA][dL][dK][dK]-NH2", "SMILES": "CC(=O)N[C@H](C)C(=O)N[C@H](CC(C)C)C(=O)N[C@H](CCCCN)C(=O)N[C@H](CCCCN)C(=O)N[C@H](CC(C)C)C(=O)N[C@H](CC(C)C)C(=O)N[C@H](CO)C(=O)N[C@@H](C(=O)N[C@H](CC(C)C)C(=O)N[C@H](CO)C(=O)N[C@H](CO)C(=O)N[C@H](C)C(=O)N[C@H](CCCCN)C(=O)N[C@H](CO)C(=O)N[C@H](CO)C(=O)N[C@H](CCCCN)C(=O)N[C@H](CC(C)C)C(=O)N[C@H](CO)C(=O)N[C@@H](C(=O)N[C@H](CC(C)C)C(=O)N[C@H](CC(C)C)C(=O)N[C@H](CCCCN)C(=O)N[C@H](C)C(=O)N[C@H](CC(C)C)C(=O)N[C@H](CCCCN)C(=O)N[C@H](CCCCN)C(N)=O)[C@H](C)O)[C@H](C)O"}}, "key": {"[1]": {"experiment": "Circular dichroism (CD) spectroscopy, characterization of helical structure", "format": "physicochemical", "conditions": "for α-helical content (% helix) in aqueous conditions: aqueous benign buffer pH 7.0, 5° C.; for helical structure in hydrophobic medium containing 50% TFE: buffer pH 7.0 / 50% TFE, 5° C.; for inducible helical structure Δ[Θ]222 nm TFE-Aqueous: difference 50% TFE minus aqueous buffer", "description": "The mean residue molar ellipticities of peptides were determined by circular dichroism (CD) spectroscopy, using a Jasco J-815 spectropolarimeter (Jasco Inc. Easton, Md., USA) at 5° C. under benign (non-denaturing) conditions (50 mM NaH2PO4/Na2HPO4/100 mM KCl, pH 7.0), hereafter referred to as benign buffer, as well as in the presence of an alpha-helix inducing solvent, 2,2,2-trifluoroethanol, TFE, (50 mM NaH2PO4/Na2HPO4/100 mM KCl, pH 7.0 buffer/50% TFE). A 10-fold dilution of an approximately 500 microM stock solution of the peptide analogs was loaded into a 0.1 cm quartz cell and its ellipticity scanned from 195 to 250 nm. Peptide concentrations were determined by amino acid analysis."}, "[2]": {"experiment": "Temperature profiling in RP-HPLC (peptide self-association)", "format": "physicochemical", "conditions": "RP-HPLC pH 2, 5° C.-77° C., maximum change in retention time relative to random coil standards", "from_the_text": "Peptide self-association, the ability to oligomerize/dimerize in aqueous solution, is an important parameter that can improve antimicrobial activity while removing toxicity. The inventors hypothesize that the monomeric random-coil antimicrobial peptides in aqueous solution are best suited to pass through a polysaccharide capsule, the outer membrane lipopolysaccharide and the cell wall peptidoglycan layer of microorganisms prior to penetration into the cytoplasmic membrane, induction of alpha-helical structure and disruption of membrane structure to kill target cells. […] In the present study, the ability of the AMPs to self-associate was determined by a technique developed in the inventors' laboratory, referred to as RP-HPLC temperature profiling at pH 2 over the temperature range of 5° C. to 80° C. […]\nPurified peptides were analyzed on an Agilent 1200 series liquid chromatograph for temperature profiling using a Zorbax 300 SB-C8 column (150 mm×2.1 mm I.D.; 5 μm particle size, 300 Å pore size) from Agilent Technologies. […]\nFIGS. 5-8 illustrate self-association profiles of the α-helical AMP analogs as determined by temperature profiling in RP-HPLC. […]"}, "[3]": {"system": "A. baumannii compared to P. aeruginosa", "experiment": "Selectivity (MICGM P. aeruginosa/MICGM A. baumannii)", "format": "cell-based, Acinetobacter baumannii"}, "human erythrocytes": {"system": "human erythrocytes", "experiment": "Hemolytic activity against human erythrocytes", "format": "cell-based", "conditions": "1% human erythrocytes, 18 h, 37° C.", "experimental": "Peptide samples (concentrations determined by amino acid analysis) were added to 1% human erythrocytes in phosphate-buffered saline (100 mM NaCl, 80 mM Na2HPO4, 20 mM NaH2PO4, pH 7.4) and the reaction mixtures were incubated at 37° C. for 18 h in microtiter plates. Two-fold serial dilutions of the peptide samples were carried out. This determination was made by withdrawing aliquots from the hemolysis assays and removing unlysed erythrocytes by centrifugation (800×g). Hemoglobin release was determined spectrophotometrically at 570 nm. The control for 100% hemolysis was a sample of erythrocytes treated with water. The control for no release of hemoglobin was a sample of 1% erythrocytes without any peptide added. Since erythrocytes were in an isotonic medium, no detectable release (<1% of that released upon complete hemolysis) of hemoglobin was observed from this control during the assay. The hemolytic activity is generally determined as the peptide concentration that causes 50% hemolysis of erythrocytes after 18 h (HC50). HC50 was determined from a plot of percent lysis versus peptide concentration (microM). If 50% hemolysis could not be reached, the inventors used HC30 values (30% hemolysis)."}, "Pseudomonas aeruginosa": {"system": "Pseudomonas aeruginosa", "experiment": "Antimicrobial activity against Pseudomonas aeruginosa", "format": "cell-based", "experimental": "In the current study de novo designed AMPs were tested against seven diverse clinical isolates of the Gram-negative pathogen A. baumannii and seven A. baumannii strains resistant to polymyxin B and polymyxin E (Colistin). In addition, the inventors tested these AMPs against six diverse clinical isolates of the Gram-negative pathogen, P. aeruginosa, and nine Gram-positive methicillin-sensitive S. aureus clinical isolates and eight Gram-positive methicillin/oxacillin-resistant S. aureus strains. This testing allows for the determination of pathogen selectivity between Gram-negative and Gram-positive pathogens as the location of the positively charged residues on the polar face is varied.\nThe minimal inhibitory concentration (MIC) is defined as the lowest peptide concentration that inhibited bacterial growth. MICs were measured by a standard microtiter dilution method in Mueller Hinton (MH) medium. Briefly, cells were grown overnight at 37° C. in MH broth and were diluted in the same medium. Serial dilutions of the peptides were added to the microtiter plates in a volume of 50 microL, followed by the addition of 50 microL of bacteria to give a final inoculum of 5×10^5 colony-forming units (CFU)/mL. The plates were incubated at 37° C. for 24 h, and the MICs were determined."}, "D52": {"target": "D52", "experiment": "RP-HPLC temperature profiling 5-77 C, pH 2; self-association (monomer-dimer) of the peptide"}, "D26 (K13A, K16A)": {"target": "D26 (K13A, K16A)", "experiment": "RP-HPLC temperature profiling 5-77 C, pH 2; self-association (monomer-dimer) of the peptide"}}, "note": "Square brackets hold non-standard residues; d marks the D form. Orn = NCCC[C@H](N)C(=O)O"}
{"molecule": "Ac-ALKKLLSTLSSAKSSKLSTLLKALKK-amide (Ac-ALKKLLSTLSSAKSSKLSTLLKALKK-NH2) [D52]", "values": [{"measurement": "α-helical content (% helix) in aqueous conditions", "setting": "[1]", "result": 13.7, "unit": "%"}, {"measurement": "helical structure in hydrophobic medium containing 50% TFE", "setting": "[1]", "result": 100, "unit": "%"}, {"measurement": "inducible helical structure Δ[Θ]222 nm TFE-Aqueous", "setting": "[1]", "result": 1422}, {"measurement": "peptide self-association parameter PA", "setting": "[2]", "result": 7.78, "unit": "min"}]}
{"molecule": "Ac-ALKKLLSTLSSARSSRLSTLLKALKK-NH2 [D58]", "values": [{"measurement": "α-helical content (% helix) in aqueous conditions", "setting": "[1]", "result": 7.2, "unit": "%"}, {"measurement": "inducible helical structure Δ[Θ]222 nm TFE-Aqueous", "setting": "[1]", "result": 750}]}
{"molecule": "Ac-ALKKLLSTLSSA[Orn]SS[Orn]LSTLLKALKK-NH2 [D56]", "values": [{"measurement": "α-helical content (% helix) in aqueous conditions", "setting": "[1]", "result": 3.5, "unit": "%"}, {"measurement": "helical structure in hydrophobic medium containing 50% TFE", "setting": "[1]", "result": 27.2, "unit": "%"}]}
{"molecule": "Ac-AL[Orn][Orn]LLSTLSSAKSSKLSTLL[Orn]AL[Orn][Orn]-NH2 [D59]", "values": [{"measurement": "α-helical content (% helix) in aqueous conditions", "setting": "[1]", "result": 6.9, "unit": "%"}, {"measurement": "inducible helical structure Δ[Θ]222 nm TFE-Aqueous", "setting": "[1]", "result": 1061}]}
{"molecule": "Ac-KLKSLLKTLSKAKKKKLKTLLKALSK-NH2 [D16, reference compound]", "values": [{"measurement": "selectivity factor (MICGM P. aeruginosa/MICGM A. baumannii)", "setting": "[3]", "result": 2.7}]}
{"molecule": "Ac-KLKSLLSTLSSAAKKALSTLLSALSK-NH2 [D26 (K13A, K16A)]", "values": [{"measurement": "helical structure in aqueous buffer conditions (in words)", "setting": "[1]; 50 mM potassium phosphate buffer, pH 7.0, 100 mM KCl", "result": "α-helical"}]}
{"molecule": "Ac-KLKSLLSTLSSAKKKKLSTLLSALSK-NH2 [D26]", "values": [{"measurement": "improvement in selectivity (MICGM P. aeruginosa/MICGM A. baumannii)", "setting": "[3]", "result": 25, "unit": "fold"}, {"measurement": "hemolytic activity HC50", "setting": "human erythrocytes", "result": "> 1776", "unit": "µM"}, {"measurement": "activity against Pseudomonas aeruginosa (in words)", "setting": "Pseudomonas aeruginosa", "result": "inactive"}, {"measurement": "α-helical content (% helix) in aqueous conditions", "setting": "[1]", "result": 8.9, "unit": "%"}]}
{"molecule": "B1", "values": [{"measurement": "PA (peptide self-association parameter)", "setting": "D52", "result": 7.78, "unit": "min"}]}
{"molecule": "Ac-[dK][dL][dK][dS][dL][dL][dS][dT][dL][dS][dS][dA][dA][dK][dK][dA][dL][dS][dT][dL][dL][dS][dA][dL][dS][dK]-NH2", "note": "[D26 (K13A, K16A)]", "values": [{"measurement": "PA (peptide self-association parameter)", "setting": "D26 (K13A, K16A)", "result": 27, "unit": "min"}]}
